Numbers after ± are expanded uncertainties.
Details: Crystal; visual observation

- Normal melting temperature: 155 ± 1.1 °C
Compound: COc1ccc2cc([C@H](C)C(=O)O)ccc2c1 [(S)-(+)-naproxen]
